Laboratory results as given in patent US20210317090A1, “AMINO ACID DEPLETION AGENTS AS ANTIPROLIFERATIVE AGENTS” (University of Central Florida Research Foundation, Inc., priority 2018, published 2021).
Read-outs that look alike come from different tables or passages of the source.

What was measured:
CHO K1 cells [1] = conditions: previously determined (ref 7), read-out: 48 h IC50; cited from earlier work
LAT-1 [2] = target: T1, LAT-1 (Homo sapiens, UniProt Q01650); experiment: 3H-Leucine uptake assay; format: cell-based; conditions: L3.6pl cells, increasing concentration, 15 min uptake (FIG. 10D, 10E)
T1 construct: endogenous in cells; host or cells: L3.6pl human pancreatic cancer cells
T1 sequence (Q01650 whole entry): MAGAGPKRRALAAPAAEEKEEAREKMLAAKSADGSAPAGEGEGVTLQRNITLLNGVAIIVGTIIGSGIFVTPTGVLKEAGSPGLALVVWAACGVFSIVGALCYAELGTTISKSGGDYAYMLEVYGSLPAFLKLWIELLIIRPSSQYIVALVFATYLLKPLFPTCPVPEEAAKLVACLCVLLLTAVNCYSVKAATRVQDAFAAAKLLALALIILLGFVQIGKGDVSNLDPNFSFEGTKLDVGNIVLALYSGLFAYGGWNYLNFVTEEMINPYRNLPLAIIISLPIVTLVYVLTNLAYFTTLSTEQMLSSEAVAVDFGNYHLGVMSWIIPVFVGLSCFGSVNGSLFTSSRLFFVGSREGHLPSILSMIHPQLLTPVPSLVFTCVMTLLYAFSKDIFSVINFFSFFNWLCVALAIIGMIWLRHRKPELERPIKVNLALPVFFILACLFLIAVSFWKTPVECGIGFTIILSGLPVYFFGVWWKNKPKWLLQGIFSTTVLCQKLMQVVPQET
T1 sequence (P08195 102-630 partner): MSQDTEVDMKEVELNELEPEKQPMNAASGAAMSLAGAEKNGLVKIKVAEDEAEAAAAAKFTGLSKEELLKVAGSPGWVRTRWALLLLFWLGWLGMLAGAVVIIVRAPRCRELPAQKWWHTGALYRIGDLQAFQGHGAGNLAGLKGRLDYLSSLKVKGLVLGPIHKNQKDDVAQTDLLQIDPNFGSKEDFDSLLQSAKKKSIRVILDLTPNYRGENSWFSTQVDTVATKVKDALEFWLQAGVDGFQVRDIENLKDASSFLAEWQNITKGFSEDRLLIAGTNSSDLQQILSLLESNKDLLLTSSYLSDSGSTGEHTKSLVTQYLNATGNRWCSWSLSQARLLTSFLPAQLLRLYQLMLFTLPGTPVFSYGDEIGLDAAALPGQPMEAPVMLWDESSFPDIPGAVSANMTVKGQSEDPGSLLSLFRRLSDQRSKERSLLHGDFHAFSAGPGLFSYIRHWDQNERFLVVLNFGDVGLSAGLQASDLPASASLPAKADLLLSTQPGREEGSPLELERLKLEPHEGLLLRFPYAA
Method: ^3H-Leucine uptake experiments were performed according to the protocol developed by Hälfliger et al. (2018) (referenced below with the following changes. Briefly, cells were seeded at 60% confluency in a 24-well plate and incubated for 4 h at 37° C. After 4 hours, different concentrations of compound 10 were added and the cells were then incubated overnight. L-^3H-leucine uptake inhibition was measured for 15 minutes using a 12 μM stock of L-[^3H]leucine (79 Ci/mmol). The final concentration of ^3H-leucine in each well was 1.2 uM. This concentration produced a CPM reading of ˜4000 cpm for the control. Uptake was terminated by removing the buffer solution followed by washing the cells with cold Na^+-free Hank's Balanced Salt Solution. Cells were then lysed to give ˜500 μL of cell lysate. A portion of the cell lysate (200 μL) was mixed with Scintiverse™ BD Cocktail for determining radiocounts. The radioactivity was measured with a scintillation counter (Beckman Coulter LS 6500 Multi-Purpose Scintillation Counter). Another portion of the cell lysate (300 μL) was used for protein determination using the BCA method. The final data was expressed as cpm/microgram of protein to account for the different number of cells remaining after the experiment. This was necessary because compound 10 was toxic and less cells were present after the overnight incubation (24 h). […]

LAT-1 [3] = target: T1, LAT-1; experiment: 3H-Leucine efflux assay; format: cell-based; conditions: L3.6pl, 2 min; JPH-203 30 μM or compound 10 20 μM
Source text: JPH203 is not toxic to L3.6pl cells over this concentration range and time interval. FIG. 10E is an example according to various embodiments, illustrating results obtained for a Leu uptake inhibition experiment with compound 10. Note: the y-axis in FIG. 10E is in CPM per ug of protein to normalize the data and account for any potential losses of cells due to toxicity of compound 10. FIG. 10F is an example according to various embodiments, illustrating results obtained for a Leucine efflux experiment with LAT-1 inhibitor JPH-203. Briefly, the efflux procedure involved cells pre-incubated with ‘hot’ leucine (3H labeled) and washed to remove unbound radiolabeled Leucine. The cells were then incubated in the presence and absence of unlabeled Leucine (100 μM) and/or the LAT-1 inhibitor JPH-203 (30 μM). In the presence of unlabeled leucine, the cells released ‘hot’ 3H-leucine into the media which was measured via scintillation/radioactivity counts. This efflux or release from within the cell was inhibited by the presence of the LAT-1 inhibitor, JPH-203 (30 μM, FIG. 10F). Since JPH203 inhibits the import of unlabeled leucine then less unlabeled Leucine will enter the cell and less efflux of radiolabeled Leucine molecules from inside the cell will be observed. This is consistent with JPH-203 being a LAT-1 inhibitor. FIG. 10G is an example according to various embodiments, illustrating results obtained for a two minute Leucine efflux experiment with compound 10. Cells were pre-incubated with ‘hot’ leucine (^3H labeled) and washed to remove unbound radiolabeled Leucine. The cells were then incubated in the presence and absence of unlabeled “cold” Leucine (100 μM) and/or the compound 10 (20 μM). In the presence of unlabeled ‘cold’ leucine, the cells released ‘hot’ ^3H-leucine into the media which was measured via scintillation/radioactivity counting. […] The efflux experiment was repeated and the time for monitoring efflux increased to 30 minutes. […] In summary, compound 10 inhibits Leucine uptake and facilitates LAT-1 mediated efflux.
^3H-Leucine Efflux Assay ^3H-Leucine efflux experiments were performed according to the protocol developed by Hälfliger et al. (2018) (referenced below) with the following changes. Briefly, cells were preloaded with 12 μM stock of L-[^3H]leucine (79 Ci/mmol) to give a final concentration of ^3H-leucine was 1.2 μM in each well. […] The medium was then collected and mixed with scintillation fluid (Scintiverse™ BD Cocktail) and radioactivity measured (Beckman Coulter LS 6500 Multi-Purpose Scintillation Counter). […] The lysate (300 μL) was mixed with scintillation fluid and radioactivity was counted. Relative efflux was expressed as percentage radioactivity=100%×(radioactivity of medium)/(radioactivity of the medium+radioactivity of the cells). […]

[4] = tested on: L3.6pl human pancreatic cancer cells; experiment: Cytotoxicity dose-response (MTS) in L3.6pl cells; format: cell-based
Method: L3.6pl Studies. Compounds 9 and 10 were evaluated in the metastatic human pancreatic cancer cell line, L3.6pl. L3.6pl has a K-ras mutation, and high polyamine uptake activity.^7 A dose-response curve was obtained for each compound in L3.6pl cells to determine the 72 h L3.6pl IC50 value, described as the dose at which L3.6pl cells were 50% viable compared to the untreated control.
(§1) Regarding the biological studies performed in the following examples, it is noted that CHO K1, CHO-MG, and L3.6pl cells were grown in RPMI 1640 medium supplemented with 10% fetal bovine serum (FBS) and 1% penicillin/streptomycin. All cells were grown at 37° C. under a humidified 5% CO2 atmosphere. Aminoguanidine (1 mM used for CHO K1 and CHOMG cells and 250 μM for L3.6pl) was added to the growth medium to prevent oxidation of the compounds of the bovine serum amine oxidase enzyme that is present in calf serum. The cells used were in early to mid log phase and CHO and CHOMG were plated out at 1000 cells/well, whereas the L3.6pl cells were plated at 500 cells/well in a 96 well plate format.
(§2) This example illustrates aspects according to various embodiments pertaining to IC50 determinations and cell viability studies. Cell growth was assayed in sterile 96-well microtiter plates (Costar 3599, Corning, N.Y.). CHO K1 or CHOMG cells were plated at 1,000 cells/70 μL and L3.6pl cells at 500 cells/70 μL. The drug solutions of appropriate concentration in phosphate buffered saline (PBS) were added 10 μL per well after overnight incubation. After drug exposure (e.g., for 48 h for CHO K1 and CHO-MG and 48 h or 72 h for L3.6pl), cell growth was determined by measuring formazan formation from the 3-(4,5dimethylthiazol-2-yl)-5-(3-carboxymethoxyphenyl)-2-(4-sulfenyl)-2H tetrazolium, inner salt (MTS) using SynergyMx Biotek microplate reader for absorbance (490 nm) measurements.^27 All experiments were run in triplicate.

CHO K1 cells [5] = experiment: cells; format: cell-based, Chinese hamster; conditions: Cricetulus griseus, Ant-44 0.5 μM
Method: Various embodiments involve the concept that a non-toxic PTI agent would inhibit the uptake of the cytotoxic polyamine conjugate Ant-44 (11) and rescue cells from Ant-44 induced toxicity. For example, using the IC50 dose of Ant-44, PTIs could be identified by measuring a compound's ability to block Ant-44 entry and rescue cells back to >90% viability. […] This toxic dose of Ant-44 was kept constant throughout the assay, while the candidate PTI compound was added in increasing concentrations up to its MTD.
Compounds (9 and 10) were tested at 5 μM and 7 μM. CHO K1 cells were treated in a 96-well plate with a toxic dose of Ant-44 (2.4 μM) alone and dosed with the candidate compounds (at 5 μM and 7 μM) and incubated for 48 h at 37° C.
To further explore this effect, development of various embodiments included modifying an original screen to use a lower dose of Ant-44 (0.5 μM) to improve the dose range of 9 and 10 that could be tested. In this regard, Ant-44 was dosed at 0.5 μM alone and in combination with increasing doses of compounds 9 (1666.177) and 10 (1666.255) and the CHO K1 cells were incubated for 48 h at 37° C., and the results are shown in FIG. 5. The red line represents the % cell viability of the Ant-44 only control. The Ant44 potentiation assay EC50 value is defined as the concentration of the candidate compound required to decrease the cell viability to half that of the Ant-44 only control. Both compounds 9 and 10 were effective at decreasing cell viability, when used in combination with Ant-44 in a dose dependent fashion.
FIG. 5 is an example according to various embodiments, illustrating potentiation of Ant-44 toxicity by compounds 9 and 10 in CHO K1 cells. Cells were incubated for 48 h at 37° C. with the respective compound and a fixed concentration of cytotoxic Ant-44 (0.5 μM). A 1 mM AG solution was incubated with the CHO K1 cells for 24 h prior to the addition of candidate compound. This was necessary to protect Ant-44 from the amine oxidases present in the media containing fetal bovine serum. […] Both compounds are nontoxic at the highest concentration tested (5 μM).

L3.6pl cells = experiment: Ant-44 toxicity potentiation assay in L3.6pl cells; format: cell-based, human; conditions: Homo sapiens, Ant-44 2 μM, 72 h
Method: As performed previously with CHO K1 cells, L3.6pl cells were treated with compounds 9 (1666.177) and 10 (1666.255) and a fixed dose of Ant-44 to observe the potentiation effect. The 72 h IC50 dose of Ant-44 in L3.6pl cells was previously determined to be 4 μM. For this study, half that dose was used to replicate the large window used in the CHO experiments to look at reduction in cell viability. In a 96-well plate, L3.6pl cells were dosed with a fixed concentration of Ant-44 (2 μM) and increasing doses of compounds 9 (1666.177) and 10 (1666.255). Although both compounds were effective at reducing cell viability, higher doses were required compared to CHO K1 cells.
FIG. 6 is an example according to various embodiments, illustrating the ability of compounds 9 (1666.177) and 10 ([…]) to potentiate the effect of Ant-44 in L3.6pl cells. Cells were incubated for 72 h at 37° C. with the respective compound and Ant-44 (2 μM). A 250 μM AG solution was incubated with the cells for 24 h prior to addition of compounds. […] Both compounds are nontoxic at the second highest concentration tested (1 μM).

CHO K1 cells [6] = experiment: Cytotoxicity dose-response (MTS cell viability) in CHO K1 cells; format: cell-based, Chinese hamster; conditions: 48 h
Method: CHO K1 Studies. Wild type Chinese hamster ovary (CHO K1) cells were chosen to first study the synthetic compounds' impact on polyamine metabolism. The CHO K1 cell line has high polyamine transport activity and was useful in screening compounds for their polyamine transport inhibitor activity. A dose-response curve was obtained for each compound to determine their toxicity in CHO K1 cells after 48 h incubation. Compound 9 (1666.177) was non-toxic up to the highest dose tested (15 μM).
as §1, §2

NCCC[C@](N)(C(=O)O)C(F)F [DFMO, α-difluoromethylornithine]
IC50 (CHO K1 cells [1]): 4200 µM

Nc1cc(COc2c(Cl)cc(C[C@H](N)C(=O)O)cc2Cl)c2oc(-c3ccccc3)nc2c1 [JPH-203, reference compound]
3H-Leucine uptake (LAT-1 [2]): dose dependent decrease in 3H-Leucine uptake
3H-leucine efflux stimulated by unlabeled Leucine (100 μM) (LAT-1 [3]): inhibited
3H-leucine efflux, compound alone (LAT-1 [3]): modestly stimulated efflux
toxicity to L3.6pl cells ([4]; over the concentration range and time interval of the uptake experiment): not toxic

CC(C)(C)CCN1CCN(C(CNCc2ccccc2)Cc2ccccc2)CC1Cc1ccccc1.Cl.Cl.Cl (stereo not drawn) [Compound 9, Benzyl-{2-[3-benzyl-4-(3,3-dimethyl-butyl)-piperazin-1-yl]-3-phenyl-propyl}-amine trihydrochloride salt]
EC50 (CHO K1 cells [5]; CHO K1 cells, 48 h (FIG. 5), read-out: Ant-44 potentiation EC50): 0.75 µM
EC50 (CHO K1 cells [5]; CHO cells, 48 h, read-out: Ant44 potentiation assay EC50): 0.75 µM
EC50 (L3.6pl cells): 3.27 ± 0.17 µM
toxicity of compound alone (CHO K1 cells [6]; CHO K1, highest concentration tested (5 μM)): nontoxic
toxicity (dose-response curve) (CHO K1 cells [6]; CHO K1 cells, up to the highest dose tested (15 μM)): non-toxic
IC50 ([4]; Homo sapiens, L3.6pl cells, 72 h, read-out: 72 h IC50): 11.7 ± 0.9 µM
toxicity of compound alone ([4]; L3.6pl, second highest concentration tested (1 μM), 72 h): nontoxic
